Values quoted from earlier work, collected in US20120035103A1 (priority 2010, published 2012).

Tested on: cells that line the nasal cavity

Structure (SMILES): CCCCCCCCCCCCCCO[C@@H]1O[C@H](CO)[C@@H](O[C@H]2O[C@H](CO)[C@@H](O)[C@H](O)[C@H]2O)[C@H](O)[C@H]1O [TDM, Tetradecyl-β-d-maltoside]
- Toxicity to the cells that line the nasal cavity (0.125% TDM): minimal toxicity
- Appearance of the cells that line the nasal cavity (0.50% TDM, versus 0.125% TDM): became more evident
